Data taken from BindingDB's records for doi:10.1016/s0960-894x(03)00136-7 (2003).

Molecular target: Serine/threonine-protein phosphatase 2A catalytic subunit alpha (Homo sapiens) (UniProt P67775)
Assay: Inhibitory activity against protein phosphatase (PP2A) using fluorescein diphosphate as substrate

Sequence of Serine/threonine-protein phosphatase 2A catalytic subunit alpha (Homo sapiens) (P67775 whole entry, looked up): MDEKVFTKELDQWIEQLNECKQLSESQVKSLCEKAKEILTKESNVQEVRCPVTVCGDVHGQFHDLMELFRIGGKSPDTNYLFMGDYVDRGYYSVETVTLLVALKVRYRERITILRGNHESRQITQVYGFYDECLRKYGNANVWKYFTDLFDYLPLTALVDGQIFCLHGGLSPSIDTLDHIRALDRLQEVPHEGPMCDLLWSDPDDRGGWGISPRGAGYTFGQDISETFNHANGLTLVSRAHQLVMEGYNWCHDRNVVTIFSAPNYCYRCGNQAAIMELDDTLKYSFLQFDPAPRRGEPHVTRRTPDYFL

IC50 [µM] | SMILES
< 10 | CC(C)(O)[C@H]1CC[C@](C)([C@@H](O)CC[C@](O)(CO)C2=CC[C@H]3O[C@@H]([C@]4(C)CC[C@@H](Br)C(C)(C)O4)CC[C@]3(C)O2)O1
< 10 | C=C([C@@H](O)C[C@H](O)[C@@]1(C)CC[C@H](C(C)(C)O)O1)[C@H]1CC[C@H]2O[C@@H]([C@]3(C)CC[C@@H](Br)C(C)(C)O3)CC[C@]2(C)O1
